The target in data set [1] is Transient receptor potential cation channel subfamily V member 1 (Homo sapiens, UniProt Q8NER1). Nature of the data set: Inhibition of low pH activation of human TRPV1. In kind it is functional.
Data set [2] can be described thus: Half life in rat at 3 mg/kg, po. In kind it is ADME, organism-based. Also noted: dose 3 mg/kg, route oral. To be noted: Wistar Han, in vivo.
Data set [3] in a line: Aqueous solubility at pH 6.8 and 25 degC. The format is physicochemical. The note with it: aqueous medium.

The structures appear in SMILES notation. In brackets after ≈: the same amount, converted by molar mass.

Sequence of Transient receptor potential cation channel subfamily V member 1 (Q8NER1 whole entry): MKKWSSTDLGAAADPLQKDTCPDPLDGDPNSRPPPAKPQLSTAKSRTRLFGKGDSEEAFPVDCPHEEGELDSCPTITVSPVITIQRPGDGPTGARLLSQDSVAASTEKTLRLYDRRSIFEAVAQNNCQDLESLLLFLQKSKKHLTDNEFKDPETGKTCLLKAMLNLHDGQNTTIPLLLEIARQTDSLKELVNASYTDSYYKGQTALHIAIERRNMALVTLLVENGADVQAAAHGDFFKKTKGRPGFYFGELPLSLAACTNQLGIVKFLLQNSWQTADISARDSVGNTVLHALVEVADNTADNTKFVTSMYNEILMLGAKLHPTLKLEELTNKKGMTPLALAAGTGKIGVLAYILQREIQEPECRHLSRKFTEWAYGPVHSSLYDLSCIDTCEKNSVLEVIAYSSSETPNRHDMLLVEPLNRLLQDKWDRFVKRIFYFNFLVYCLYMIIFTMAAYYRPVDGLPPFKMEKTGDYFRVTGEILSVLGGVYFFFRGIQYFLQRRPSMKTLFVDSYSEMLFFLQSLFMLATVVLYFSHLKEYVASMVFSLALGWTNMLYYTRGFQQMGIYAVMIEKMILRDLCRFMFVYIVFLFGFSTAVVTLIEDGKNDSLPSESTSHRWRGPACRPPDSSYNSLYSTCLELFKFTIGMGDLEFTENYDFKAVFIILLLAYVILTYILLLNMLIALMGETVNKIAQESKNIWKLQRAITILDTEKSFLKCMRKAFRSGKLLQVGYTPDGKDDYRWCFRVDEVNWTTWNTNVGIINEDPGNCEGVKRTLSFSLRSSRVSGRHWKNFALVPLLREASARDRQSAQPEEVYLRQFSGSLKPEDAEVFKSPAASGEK

As to `CC(C)(C)c1nc2[nH]c(=S)[nH]c(=O)c2cc1-c1ccc(Cl)cc1`, in data set [1], 18 nM corresponded to half-maximal inhibition (IC50). The half-life in data set [2] is 7.5 h. The molecule also showed a solubility in data set [3] of 0.15 µg/mL (≈ 0.434 µM).

The values are drawn from ChEMBL document CHEMBL1147725, “Identification and biological characterization of 6-aryl-7-isopropylquinazolinones as novel TRPV1 antagonists that are effective in models of chronic pain” (J Med Chem, 2006).
